One block for each molecule: values may come before it.
Assays:
m-calpain = molecular target: T1, m-calpain (Homo sapiens, UniProt P17655); test: m-calpain inhibition, fluorescence-based assay with BODIPY-casein substrate; format: biochemical
T1 sequence (P17655 1-700): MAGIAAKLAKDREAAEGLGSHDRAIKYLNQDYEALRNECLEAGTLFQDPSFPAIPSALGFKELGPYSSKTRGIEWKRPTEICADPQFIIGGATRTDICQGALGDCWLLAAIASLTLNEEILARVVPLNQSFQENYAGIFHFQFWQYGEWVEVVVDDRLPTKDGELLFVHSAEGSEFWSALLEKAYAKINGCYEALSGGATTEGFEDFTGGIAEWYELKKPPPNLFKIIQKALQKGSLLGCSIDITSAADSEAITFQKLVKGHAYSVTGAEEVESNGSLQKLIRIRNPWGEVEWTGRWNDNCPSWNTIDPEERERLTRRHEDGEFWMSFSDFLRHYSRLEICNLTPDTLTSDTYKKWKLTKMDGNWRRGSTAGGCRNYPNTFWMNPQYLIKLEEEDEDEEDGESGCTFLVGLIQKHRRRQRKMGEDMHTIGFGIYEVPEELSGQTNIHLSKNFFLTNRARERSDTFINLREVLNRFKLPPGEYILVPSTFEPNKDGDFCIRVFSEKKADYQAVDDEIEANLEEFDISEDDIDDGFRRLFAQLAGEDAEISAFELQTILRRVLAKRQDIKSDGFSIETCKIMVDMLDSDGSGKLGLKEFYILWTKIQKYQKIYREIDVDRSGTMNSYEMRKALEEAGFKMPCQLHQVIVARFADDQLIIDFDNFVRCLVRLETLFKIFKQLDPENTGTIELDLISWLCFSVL
T1 sequence (P04632 1-268 partner): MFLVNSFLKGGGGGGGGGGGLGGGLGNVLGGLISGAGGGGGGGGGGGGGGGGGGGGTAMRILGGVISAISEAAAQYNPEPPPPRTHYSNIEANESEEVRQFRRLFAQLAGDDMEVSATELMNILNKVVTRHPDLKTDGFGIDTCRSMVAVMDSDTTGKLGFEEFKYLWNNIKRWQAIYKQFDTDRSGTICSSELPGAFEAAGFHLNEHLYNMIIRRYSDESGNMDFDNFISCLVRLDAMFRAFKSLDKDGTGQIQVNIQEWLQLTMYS
Method: The peptidic alcohol 3 and aldehyde 6 were assayed against m-calpain using a BODIPY-casein substrate in the fluorescence-based assay procedure of V. F. Thompson, S. Saldana, J. Cong and D. E. Goll, Anal. Biochem. 2000, 279, 170.
The results of the enzyme inhibition assay for 3 and 6 are graphically represented in FIGS. 1 and 2, respectively.

adult ovine lens = test: In vitro lens culture assay, calcium induced cataract; format: cell-based; details: ovine lens preincubated with 0.8 μM for 2 hours, then 5 mM calcium chloride for 20 hours
Method: The ability of the peptidic aldehyde 6 to prevent the formation of a calcium induced cataract in adult ovine lens was assayed using the procedure of J. Sanderson, J. M. Marciantonio and G. A. Duncan, Invest. Opth. Vis. Sci. 2000, 41, 2255. Three pairs of lenses were tested. One lens from each pair was preincubated with [0.8 μM] 6 for 2 hours while the other was incubated in EMEM-culture media at 35° C., 5% CO2. Then 5 mM calcium chloride was added onto both the inhibitor treated lens and the other lens, and both lenses were then incubated for 20 hours. One pair of lenses was photographed when the assay had been completed.

[1] = Ovine cornea penetration, modified Ussing chamber and LCMS; format: in vitro ADME; details: adult ovine cornea, Ussing chamber, 37° C., 3 hours, LCMS
Method: The peptidic aldehyde 6 was assayed for ovine cornea penetration using a modified Ussing chamber and LCMS based on the procedure of Youn Bok Chung, Kun Han and Vincent H. L. Lee, Pharmaceutical Research, 2000, 15, 1882. Compound 6 (3.5 mg) was dissolved in buffer A (5 mL) and added to the epithelial side a modified Ussing chamber with a pre-mounted adult ovine cornea. Buffer B (5 mL) was added to the endothelial side of the chamber and the whole chamber was incubated 37° C. for 3 hours, 5% CO2. Samples were taken from both sides of the chamber at time=0 and 180 minutes. The samples were analysed for compound 6 using LCMS.

cataracts = test: In vivo cataract progression in lambs, ointment on the eye; parameters: species or system lamb; details: 1% ointment (25 mg) twice daily, 24 lambs
Method: An ointment (25 mg) comprising 1% of the peptidic aldehyde 6 was applied twice daily to the left eye of 24 lambs for three months starting when they were two to three months old. The progression of cataracts was determined by a veterinary opthalmologist with a slit-lamp microscope.

[2] = In vivo eye irritation in a lamb after ointment application; details: 1% ointment (50 mg) applied to one eye of a lamb, three times in one day
Method: (§1) An ointment (50 mg) comprising 1% of the peptidic aldehyde 6 was applied to one eye of a lamb, three times in one day.

[3] = Detection of 6 in ovine body parts by LCMS after ointment application to one eye; format: in vivo, lamb; details: for Compound 6 detected: 1% ointment 50 mg three times in one day
Method: as §1
Various body parts were assayed for trace amounts of 6 by LCMS using a method similar to that described by A. Maltese and C. Bucolo, Biomedical Chromatography 2000, 16, 274. A rapid high-performance liquid chromatographic method using a C18 reversed-phase column with UV detection at 254 nm was used for the analysis of 6 in ovine samples. A water solution containing 2% ZnSO4.7H2O was used to deproteinise the samples. The mobile phase consisted of CH3CN and H2O containing 0.05% TFA.

Structure (SMILES): CC(C)C[C@@H](CO)NC(=O)[C@@H](NC(=O)c1ccc(C=O)[nH]1)C(C)C [Compound 3, 5-Formyl-1H-pyrrole-2-carboxylic acid [(S)-1-((S)-1-hydroxymethyl-3-methyl-butylcarbamoyl)-2-methyl-propyl]-amide]
- IC50 (m-calpain): 0.97 µM

Structure (SMILES): CC(C)C[C@@H](CO)NC(=O)[C@@H](NC(=O)c1ccc(C=O)o1)C(C)C [Compound 4, 5-Formyl-furan-2-carboxylic acid [(S)-1-((S)-1-hydroxymethyl-3-methyl-butylcarbamoyl)-2-methyl-propyl]-amide]
- IC50 (m-calpain): 120 µM

Continued, in another order:

- IC50 (m-calpain): 30.4 µM
Structure (SMILES): CC(C)C[C@@H](CO)NC(=O)[C@@H](NC(=O)c1ccc(C=O)s1)C(C)C [Compound 5, 5-Formyl-thiophene-2-carboxylic acid [(S)-1-((S)-1-hydroxymethyl-3-methyl-butylcarbamoyl)-2-methyl-propyl]-amide]

- Cornea penetration [1]: yes
- Amount detected ([3]; Aqueous humour (treated eye)): 8 ng
- Compound 6 detected ([3]; Aqueous humour (treated eye)): yes
- Compound 6 detected ([3]; Kidney): no
- Amount detected ([3]; Lens (treated eye)): 6 ng
- Compound 6 detected ([3]; Lens (treated eye)): yes
- Compound 6 detected ([3]; Liver): no
- Compound 6 detected ([3]; Plasma): no
- Amount detected ([3]; Vitreous humour (treated eye)): 4 ng
- Compound 6 detected ([3]; Vitreous humour (treated eye)): yes
- IC50 (m-calpain): 0.03 µM
Structure (SMILES): CC(C)C[C@@H](C=O)NC(=O)[C@@H](NC(=O)c1ccc(C=O)[nH]1)C(C)C [Compound 6, 5-Formyl-1H-pyrrole-2-carboxylic acid [(S)-1-((S)-1-formyl-3-methyl-butylcarbamoyl)-2-methyl-propyl]-amide]
- Inhibition of cataract formation (adult ovine lens): yes
- Cataract progression, treated left eye (cataracts; first month following treatment (p<0.05)): significantly slower cataract progression
- Cataract progression, treated versus untreated eyes (cataracts; following two months): no significant differences
- Eye irritation [2]: No sign of irritation

- melting point: 46 to 48 °C
Structure (SMILES): CC(C)C[C@@H](CO)NC(=O)[C@@H](NC(=O)c1ccc(C=O)o1)C(C)C [Compound 7, 5-Formyl-furan-2-carboxylic acid [(S)-1-((S)-1-hydroxymethyl-3-methyl-butylcarbamoyl)-2-methyl-propyl]-amide]

Reference: patent publication US20070293560A1, “Compounds and compositions” (priority 2006, published 2007)
